Measured values as given in patent US20100144855A1, “APPLICATION OF SEDOISOPROSAN FOR PREPARATION OF MEDICINE FOR TREATMENT OF HUMAN HBeAg POSITIVE CHRONIC HEPATITIS B” (priority 2008, published 2010).

Experiments:
[1] = tested on: hepatitis B virus; experiment: clinical trial, curative effect in HBeAg positive chronic hepatitis B patients; type: in vivo, human
Experimental: The clinical trial protocol was designed according to the randomized, double-blind and controlled principle. The clinical efficacy and the safety of sedoisoprosan for therapy on human HBeAg positive chronic hepatitis B is defined according to the changes of vivo HBV-DNA level, ALT level, vital signs, blood routine indexes, blood biochemical indexes and thyroid function indexes before and after administration and the incidence of adverse events.
The clinical trials were performed on adult chronic hepatitis B patients who were HBsAg positive, HBeAg positive and HBsAb negative, with HBV-DNA levels more than 10^5 copies/ml and increased ALT.
Patients enrolled in the clinical trials must meet all the following criteria: signature of informed consent forms; age ≧18 years and ≦65 years; HBsAg positive, HBeAg positive and HBsAb negative for over 6 months; HBV-DNA level ≧10^5 copies/ml; increase in serum ALT level in 6 months before the first administration (ULN<ALT≦10×ULN for twice, wherein ALT≧2×ULN for once); negative pregnancy tests for women of child-bearing age in 24 hours before the first administration; and effective contraception measures used during the clinical trials and within 3 months after the therapy.
Since the effective doses of sedoisoprosan for reducing serum DHBV-DNA levels of ducks infected with hepatitis B virus was 200 mg/kg and 100 mg/kg (intraperitoneal injection, twice a day), doses of sedoisoprosan for the clinical trials may be between 200 mg and 800 mg (intravenous drip, once a day). […] For the purpose of the present invention, three doses of sedoisoprosan, 200 mg, 400 mg and 800 mg in 250ml 5% glucose solution (intravenous drip, within 60 mins), were used in the clinical trials.
According to the traditional treatment for chronic hepatitis B with interferon, patients enrolled in the clinical trials were administrated with sedoisoprosan once a day continuously for 4 weeks, then 3 times a week continuously for 8 weeks.
Three doses of sedoisoprosan, 200 mg, 400 mg and 800 mg respectively, were used for treatment. Mannite of 800 mg was used for negative control.
Patients enrolled in the clinical trials were randomly divided into four groups, i.e. negative control group (800 mg mannite), low dose group (200 mg sedoisoprosan with 600 mg mannite), median dose group (400 mg sedoisoprosan with 400 mg mannite) and high dose group (800 mg sedoisoprosan) respectively. Each patient was assigned with a CRF No. which was randomly generated by computer.
Baseline assessment was performed on the day of the first administration, which included medical examination, hematological examination, blood biochemical examination, thyroid function examination, ALT examination and quantitative detection of HBV-DNA. The medical examination included the examination of stature, avoirdupois, blood pressure and pulse rate. The hematological examination included the leucocyte, neutrophil, erythrocyte, platelet and haemoglobin counts, and the prothrombin time. The blood biochemical examination included the examination of serum potassium, sodium, GOT, total bilirubin, AKP, total protein, albumin, total cholesterol, triglyceride, urea nitrogen, creatinine and glucose.
The patients were followed up at the 1st, 2nd, 4th, 8th and 12th week of the treatment. The blood biochemical examination and the quantitative detection of HBV-DNA was performed at the 2nd, 4th, 8th and 12th week of the treatment, and the adverse events were recorded at the same time. The thyroid function examination was performed at the 12th week of the treatment.
The primary curative effect index was the virologic response rate at the 12th week of the treatment, i.e. the proportion of patients having HBV-DNA levels not more than 2×10^4 copies/ml or having a decline in HBV-DNA levels of 2 log10 copies/ml compared to the baseline value. […]

[2] = animal experiments; cited from earlier work
[3] = tested on: lymphocytes; settings: sedoisoprosan associated with ConA and LPS, in vitro; cited from earlier work
[4] = tested on: HBsAg and HBeAg; settings: animal experiments; cited from earlier work
[5] = tested on: duck hepatitis B virus (DHBV); settings: cited from earlier work
[6] = high dose group (800 mg sedoisoprosan), after 12 weeks' treatment
[7] = high dose group, after 12 weeks' treatment
[8] = low dose group (200 mg sedoisoprosan with 600 mg mannite), after 12 weeks' treatment
[9] = median dose group (400 mg sedoisoprosan with 400 mg mannite), after 12 weeks' treatment

## CC1(C)OC2C3COC(CO)(O3)C(O)C2O1 (stereo not drawn) [sedoisoprosan, isopropylidene sedoheptulosan]
[1]; 200, 400, 800 mg, after 12 weeks' treatment
  HBV-DNA levels, dose-effect relationship: tended to decrease more as the doses increased
[1]; high dose group (800 mg sedoisoprosan), 16 cases
  The 12th Week Decrease Values of lg(HBV-DNA), mean ± SD: 0.96 ± 1.41
[1]; [6]
  Biochemical Response Rates: 18.75%
  Combined Response Rates: 6.25%
  HBeAg Negative Conversion Rates: 6.25%
[1]; high dose group (800 mg sedoisoprosan), the 4th week, 16 cases
  Virologic Response Rate: 0.00%
[1]; high dose group (800 mg sedoisoprosan), the 8th week, 16 cases
  Virologic Response Rate: 12.50%
[1]; high dose group (800 mg sedoisoprosan), the 12th week, 16 cases
  Virologic Response Rate: 18.75%
[1]; [7]
  cases of HBeAg negative conversion: one
  decrease values of lg(HBV-DNA), comparison within the group: significant differences
[1]; human HBeAg positive chronic hepatitis B
  effect on hepatitis B virus (conclusion of the clinical trials): effectively inhibit hepatitis B virus
[1]; low dose group (200 mg sedoisoprosan with 600 mg mannite), 13 cases
  The 12th Week Decrease Values of lg(HBV-DNA), mean ± SD: 0.52 ± 1.28
[1]; [8]
  Biochemical Response Rates: 6.25%
  Combined Response Rates: 0%
  HBeAg Negative Conversion Rates: 0%
[1]; low dose group (200 mg sedoisoprosan with 600 mg mannite), the 4th week, 13 cases
  Virologic Response Rate: 15.38%
[1]; low dose group (200 mg sedoisoprosan with 600 mg mannite), the 8th week, 13 cases
  Virologic Response Rate: 15.38%
[1]; low dose group (200 mg sedoisoprosan with 600 mg mannite), the 12th week, 13 cases
  Virologic Response Rate: 15.38%
[1]; median dose group (400 mg sedoisoprosan with 400 mg mannite), 14 cases
  The 12th Week Decrease Values of lg(HBV-DNA), mean ± SD: 0.40 ± 0.90
[1]; [9]
  Biochemical Response Rates: 12.50%
  Combined Response Rates: 0%
  HBeAg Negative Conversion Rates: 0%
[1]; median dose group (400 mg sedoisoprosan with 400 mg mannite), the 4th week, 14 cases
  Virologic Response Rate: 0.00%
[1]; median dose group (400 mg sedoisoprosan with 400 mg mannite), the 8th week, 14 cases
  Virologic Response Rate: 0.00%
[1]; median dose group (400 mg sedoisoprosan with 400 mg mannite), the 12th week, 14 cases
  Virologic Response Rate: 14.29%
[1]; median dose group and low dose group, after 12 weeks' treatment
  decrease values of lg(HBV-DNA), comparison within the group: no significant differences
[2]
  activity of ACP and TNE: enhance
  immune system: regulate
[3]
  mitogenic activity of ConA and LPS: enhance
  transformation of lymphocytes: promote
[4]
  secretion of HBsAg and HBeAg: inhibit
[5]; animal experiments
  DHBV-DNA level: reduce
[5]; ducks infected with hepatitis B virus, intraperitoneal 200 mg/kg or 100 mg/kg twice a day for 14 days, seventh and fourteenth day
  serum DHBV-DNA levels: obviously decreased
